Several values for one entry are separate records, joined by “and”; a condition that tells them apart may be missing. Equal entries are not always repeated.
Target: T1, acetylcholinesterase (Homo sapiens, UniProt P22303)
T1 construct: purchased Sigma-Aldrich (St. Louis, MO, USA)
Assay: biochemical
Type: biochemical
Conditions: for IC50: concentration of acetylcholinesterase 0.2 U/mL, HPLC-DAD; for inhibition: single alkaloid standard, addition of 125 µL of 1 mg/mL (250 µg/mL final), acetylcholinesterase 10 U/mL
Experimental: For determination of acetylcholinesterase inhibitory activity, HPLC analysis was performed on the same apparatus as determination of alkaloid contents on Polar RP column with mobile phase A containing methanol and 0.0025 M diethylamine, mobile phase B containing acetate buffer at pH 3.8 and 0.0025 M diethylamine, and mobile phase in gradient elution: 0–15 min, 10% A; 15–30 min, 10–70% A; 30–60 min, 70% A. Flow rate was 1 mL/min.
[…] Samples for determination of acetylcholinesterase inhibitory activity were prepared by addition of 50 µL of acetylthiocholine iodide, 50 µL of 5′-dithiobis-(2-nitrobenzoic acid), […], and phosphate buffer at pH 7.8 to obtain 500 µL of final solution. […] All components were mixed and samples were incubated for 15 min at 37 °C. Samples were filtrated by syringe filter (CHROMAFIL Xtra, PVDF-29/25 0.20 µm) and injected into the HPLC system.

T1 sequence (P22303 32-614, species assumed): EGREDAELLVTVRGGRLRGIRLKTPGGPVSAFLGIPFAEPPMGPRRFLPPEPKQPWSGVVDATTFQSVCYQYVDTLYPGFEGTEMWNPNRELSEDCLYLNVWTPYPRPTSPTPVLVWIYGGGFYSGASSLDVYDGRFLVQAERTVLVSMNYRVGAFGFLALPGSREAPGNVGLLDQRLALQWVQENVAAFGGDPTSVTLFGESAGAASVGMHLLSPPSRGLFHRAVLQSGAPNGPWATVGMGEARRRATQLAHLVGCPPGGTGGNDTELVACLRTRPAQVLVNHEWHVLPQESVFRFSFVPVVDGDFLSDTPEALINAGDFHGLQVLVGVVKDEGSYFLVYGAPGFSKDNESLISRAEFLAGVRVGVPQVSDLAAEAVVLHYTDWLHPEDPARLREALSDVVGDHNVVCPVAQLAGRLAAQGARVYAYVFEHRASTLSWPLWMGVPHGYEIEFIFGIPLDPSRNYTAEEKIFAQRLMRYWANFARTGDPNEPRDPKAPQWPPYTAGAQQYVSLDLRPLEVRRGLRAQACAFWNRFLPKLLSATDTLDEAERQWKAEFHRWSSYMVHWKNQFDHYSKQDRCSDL

| SMILES | % inhibition of acetylcholinesterase activity | IC50 | inhibition [%] |
| --- | --- | --- | --- |
| COc1ccc2cc3[n+](cc2c1OC)CCc1cc2c(cc1-3)OCO2 [Berberine] | highest activity | – | – |
| CN1Cc2c(ccc3c2OCO3)[C@@H]2[C@H]1c1cc3c(cc1C[C@@H]2O)OCO3 [Chelidonine] | – | 27 µM | 100 |
| CN1CCc2cc3c(cc2C(=O)Cc2ccc4c(c2C1)OCO4)OCO3 [Protopine] | – | 65.5 µM | ~22 |
| C[n+]1cc2c3c(ccc2c2ccc4cc5c(cc4c21)OCO5)OCO3 [Sanguinarine] | – | 5.57 µM | – |
| COc1ccc2c(c[n+](C)c3c4cc5c(cc4ccc23)OCO5)c1OC [Chelerythrine] | – | 0.718 µM and 0.72 µM | 100 |

Source: paper PMC7796366, “Application of HPLC-DAD for In Vitro Investigation of Acetylcholinesterase Inhibition Activity of Selected Isoquinoline Alkaloids from Sanguinaria canadensis Extracts” (Molecules, 2021)
